Experimental data as given in ChEMBL document CHEMBL1121753 (J Med Chem, 1981).

Experiments:
ADJ/PC6 = experiment: Compound was tested for dose producing 90% reduction in tumor weight, in ADJ/PC6 mouse plasma cell tumor
[1] = Compound was tested for dose required to kill 50 % of ADJ/PC6 mouse plasma cell tumor in a group
[2] = Therapeutic index as the ratio of LD50 to ED50 of the compound

Row | SMILES | ED90 (ADJ/PC6) [mg/kg] | LD50 [1] [mg/kg] | selectivity ratio [2]
1 | [2H]C1([2H])CNP(=O)(N(CCCl)CCCl)OC1 (stereo unspecified) | 12 | 700 | 58
2 | O=P1(N(CCCl)CCCl)NCCCO1 (stereo unspecified) [CYCLOPHOSPHAMIDE ANHYDROUS] | 2.25 | 260 | 116
